Measured values as given in patent US20190240236A1, “ORAL TESTOSTERONE UNDECANOATE THERAPY” (Lipocine Inc., priority 2016, published 2019).

Assay: Clinic Study of Testosterone Therapy for hypogonadal males: serum T Cavg and Cmax after oral TU fixed dose regimens
Format: in vivo, human
Conditions: for Cavg > 300 ng/dL ≥75% patients / Cavg > 300 ng/dL ≥80% patients: with food (at least 10 g fat)
Protocol: Fixed Dose Dosing Regimen Examples Based on Study Described Below for Estimated or Actual Cavg (Administered with Food with at Least 10 g of Fat)
The dosage form from Example B of Composition 4 with dosing regimen (Regimen #9-16) of dosing category BID-equal dose with daily dose range 150-600 mg were used for a Clinic Study of Testosterone Therapy for hypogonadal males.
The clinical study was a randomized double-blind, placebo-controlled dose escalating study of the safety, efficacy, tolerability, and pharmacokinetics of testosterone therapy in hypogonadal males. This clinic study was a single and multiple, ascending-dose study that was designed to determine the optimal starting, titration (if appropriate), or single fixed dose for safety and efficacy targeted by the US FDA. The study also verified the time for testosterone levels to reach steady state and identified a suitable fixed dose dosing regimen that satisfies an unmet need for safety and efficacy for oral TT.
This study was carried out with conditions of a single-center, randomized, double-blind, placebo-controlled, ascending multiple-dose, and serial-group in adult hypogonadal male subjects. The objectives of this study were: • a) To assess the safety, efficacy, and tolerability of escalating single and multiple oral doses of TU dosage forms in hypogonadal males • b) To determine the pharmacokinetics (PK) of testosterone (T), DHT, TU, DHTU, and estradiol (E2) after single and multiple oral doses of TU dosage forms in hypogonadal males • C) To identify a fixed dose dosing regimen satisfying US FDA targets, without needing to titrate, for restoring serum T levels in hypogonadal males to the normal T range.
The dosing regimen for this clinical study ranged from 150 mg daily dose (75 mg BID dose) to 600 mg daily dose (300 mg BID dose). Observed pharmacokinetic parameters (T, DHT, TU, DHTU, and E2) after single and multiple oral doses of TU dosage forms in the patients were recorded in connection with each daily dose listed in the report.
The overall analyzed results of this clinical study were plotted according to % of patients for safety (Cmax<1,500 ng/dL) and efficacy (Cavg>300 ng/dL) with a variety of dosing regimens. Note that only doses that were multiples of 75 mg were tested in the clinical study, the results predicted for the other doses are estimated from these values.

[1] = Daily dose 410 mg, each BID dose 205 mg
[2] = Daily dose 420 mg, each BID dose 210 mg
[3] = Daily dose 430 mg, each BID dose 215 mg
[4] = Daily dose 438 mg, each BID dose 219 mg
[5] = Daily dose 450 mg, each BID dose 225 mg
[6] = Daily dose 460 mg, each BID dose 230 mg
[7] = Daily dose 474 mg, each BID dose 237 mg
[8] = Daily dose 480 mg, each BID dose 240 mg
[9] = Daily dose 490 mg, each BID dose 245 mg
[10] = Daily dose 500 mg, each BID dose 250 mg
[11] = Daily dose 518 mg, each BID dose 259 mg
[12] = Regimen 1, TID-equal dose, TU 75/75/75 mg
[13] = Regimen 2, TID-equal dose, TU 112/112/112 mg
[14] = Regimen 3, TID-equal dose, TU 125/125/125 mg
[15] = Regimen 4, TID-equal dose, TU 150/150/150 mg
[16] = Regimen 5, TID-equal dose, TU 188/188/188 mg
[17] = Regimen 6, TID-equal dose, TU 225/225/225 mg
[18] = Regimen 7, TID-equal dose, TU 237/237/237 mg
[19] = Regimen 8, TID-equal dose, TU 250/250/250 mg
[20] = Regimen 9, BID-equal dose (AM/PM), TU 75/75 mg
[21] = Regimen 10, BID-equal dose (AM/PM), TU 150/150 mg
[22] = Regimen 11, BID-equal dose (AM/PM), TU 215/215 mg
[23] = Regimen 12, BID-equal dose (AM/PM), TU 225/225 mg
[24] = Regimen 13, BID-equal dose (AM/PM), TU 237/237 mg
[25] = Regimen 14, BID-equal dose (AM/PM), TU 250/250 mg
[26] = Regimen 15, BID-equal dose (AM/PM), TU 265/265 mg
[27] = Regimen 16, BID-equal dose (AM/PM), TU 300/300 mg
[28] = Regimen 17, BID-different dose (AM/PM), TU 75/225 mg
[29] = Regimen 18, BID-different dose (AM/PM), TU 75/300 mg
[30] = Regimen 19, BID-different dose (AM/PM), TU 150/225 mg
[31] = Regimen 20, BID-different dose (AM/PM), TU 225/150 mg
[32] = Regimen 21, BID-different dose (AM/PM), TU 225/300 mg
[33] = Regimen 22, BID-different dose (AM/PM), TU 300/75 mg
[34] = Regimen 23, BID-different dose (AM/PM), TU 300/150 mg
[35] = Regimen 24, BID-different dose (AM/PM), TU 300/225 mg

CCCCCCCCCCC(=O)O[C@H]1CC[C@H]2[C@@H]3CCC4=CC(=O)CC[C@]4(C)[C@H]3CC[C@]12C [TU, testosterone undecanoate]
% with Cavg/day > 300 ng/dL [1]: 71.5%
% with Cmax/dose < 1,500 ng/dL [1]: 93.7%
% with Cavg/day > 300 ng/dL [2]: 74.9%
% with Cmax/dose < 1,500 ng/dL [2]: 92.8%
% with Cavg/day > 300 ng/dL [3]: 77.6%
% with Cmax/dose < 1,500 ng/dL [3]: 92.1%
% with Cavg/day > 300 ng/dL [4]: 80.0%
% with Cmax/dose < 1,500 ng/dL [4]: 91.2%
% with Cavg/day > 300 ng/dL [5]: 83.5%
% with Cmax/dose < 1,500 ng/dL [5]: 89.9%
% with Cavg/day > 300 ng/dL [6]: 85.6%
% with Cmax/dose < 1,500 ng/dL [6]: 88.9%
% with Cavg/day > 300 ng/dL [7]: 88.9%
% with Cmax/dose < 1,500 ng/dL [7]: 86.8%
% with Cavg/day > 300 ng/dL [8]: 90.0%
% with Cmax/dose < 1,500 ng/dL [8]: 86.1%
% with Cavg/day > 300 ng/dL [9]: 91.7%
% with Cmax/dose < 1,500 ng/dL [9]: 84.6%
% with Cavg/day > 300 ng/dL [10]: 93.0%
% with Cmax/dose < 1,500 ng/dL [10]: 83.2%
% with Cavg/day > 300 ng/dL [11]: 95.2%
% with Cmax/dose < 1,500 ng/dL [11]: 80.0%
Cavg > 300 ng/dL ≥75% patients [12]: No
Cavg > 300 ng/dL ≥80% patients [12]: No
Cavg > 300 ng/dL ≥75% patients [13]: No
Cavg > 300 ng/dL ≥80% patients [13]: No
Cavg > 300 ng/dL ≥75% patients [14]: No
Cavg > 300 ng/dL ≥80% patients [14]: No
Cavg > 300 ng/dL ≥75% patients [15]: Yes
Cavg > 300 ng/dL ≥80% patients [15]: Yes
Cavg > 300 ng/dL ≥75% patients [16]: Yes
Cavg > 300 ng/dL ≥80% patients [16]: Yes
Cavg > 300 ng/dL ≥75% patients [17]: Yes
Cavg > 300 ng/dL ≥80% patients [17]: Yes
Cavg > 300 ng/dL ≥75% patients [18]: Yes
Cavg > 300 ng/dL ≥80% patients [18]: Yes
Cavg > 300 ng/dL ≥75% patients [19]: Yes
Cavg > 300 ng/dL ≥80% patients [19]: Yes
Cavg > 300 ng/dL ≥75% patients [20]: No
Cavg > 300 ng/dL ≥80% patients [20]: No
Cavg > 300 ng/dL ≥75% patients [21]: No
Cavg > 300 ng/dL ≥80% patients [21]: No
Cavg > 300 ng/dL ≥75% patients [22]: Yes
Cavg > 300 ng/dL ≥80% patients [22]: No
Cavg > 300 ng/dL ≥75% patients [23]: Yes
Cavg > 300 ng/dL ≥80% patients [23]: Yes
Cavg > 300 ng/dL ≥75% patients [24]: Yes
Cavg > 300 ng/dL ≥80% patients [24]: Yes
Cavg > 300 ng/dL ≥75% patients [25]: Yes
Cavg > 300 ng/dL ≥80% patients [25]: Yes
Cavg > 300 ng/dL ≥75% patients [26]: Yes
Cavg > 300 ng/dL ≥80% patients [26]: Yes
Cavg > 300 ng/dL ≥75% patients [27]: Yes
Cavg > 300 ng/dL ≥80% patients [27]: Yes
Cavg > 300 ng/dL ≥75% patients [28]: No
Cavg > 300 ng/dL ≥80% patients [28]: No
Cavg > 300 ng/dL ≥75% patients [29]: No
Cavg > 300 ng/dL ≥80% patients [29]: No
Cavg > 300 ng/dL ≥75% patients [30]: No
Cavg > 300 ng/dL ≥80% patients [30]: No
Cavg > 300 ng/dL ≥75% patients [31]: Yes
Cavg > 300 ng/dL ≥80% patients [31]: No
Cavg > 300 ng/dL ≥75% patients [32]: Yes
Cavg > 300 ng/dL ≥80% patients [32]: Yes
Cavg > 300 ng/dL ≥75% patients [33]: No
Cavg > 300 ng/dL ≥80% patients [33]: No
Cavg > 300 ng/dL ≥75% patients [34]: Yes
Cavg > 300 ng/dL ≥80% patients [34]: Yes
Cavg > 300 ng/dL ≥75% patients [35]: Yes
Cavg > 300 ng/dL ≥80% patients [35]: Yes
US FDA T level targets for safety and efficacy (fixed dose regimen, 430 mg TU daily dose (215 mg BID-equal dose) to 480 mg TU daily dose (240 mg BID-equal dose), no titration): can satisfy US FDA T level targets for safety and efficacy without titration
